Literature values in patent US20050239189A1, “Oxidant-scavenging compound for anaerobic treatment” (priority 2004, published 2005).

System: CVOC dehalogenation
Settings: eight case studies reported by Regenesis, Inc. (2000)

SMILES: CC(O)C(=O)O (stereo not shown) [Lactic Acid]
- stimulation of CVOC dehalogenation: stimulated CVOC dehalogenation
